Measured values from paper PMC11748363, “Antimicrobial and Antiproliferative Properties of 2‐Phenyl‐N‐(Pyridin‐2‐yl)acetamides” (Chemical Biology & Drug Design, 2025).
Like-named read-outs stand apart in the source and are kept apart here.

Assays:
[1] = test system: Mycobacterium tuberculosis H37Rv; assay: Microplate Alamar Blue Assay MIC, Mtb H37Rv; format: cell-based; conditions: for MIC: Mycobacterium tuberculosis, H37RV
[2] = test system: M. avium ssp. avium CNCTC My 80/72; assay: Microplate Alamar Blue Assay MIC, M. avium; format: cell-based; conditions: for MIC: Mycobacterium avium
[3] = test system: Mycolicibacterium smegmatis DSM 43465; assay: Antimycobacterial microdilution broth MIC (resazurin), M. smegmatis; format: cell-based; conditions: DSM43465, read-out: MIC M. smegmatis
[4] = test system: M. kansasii CNCTC My 235/80; assay: Microplate Alamar Blue Assay MIC, M. kansasii; format: cell-based; conditions: for MIC: Mycobacterium kansasii
[5] = test system: Mycobacterium tuberculosis H37Ra; assay: Antimycobacterial microdilution broth MIC (resazurin), Mtb H37Ra; format: cell-based; conditions: for MIC: Mycobacterium tuberculosis, H37RA, read-out: MIC Mtb H37Ra; for SI (selectivity index): SI = HepG2 IC50 (μM)/MIC MtbH37Ra (μM), calculated for compounds with MIC ≤ 31.25 μg/mL
[6] = test system: Mycolicibacterium aurum DSM 43999; assay: Antimycobacterial microdilution broth MIC (resazurin), M. aurum; format: cell-based; conditions: DSM43999, read-out: MIC M. aurum
[7] = test system: Escherichia coli CCM 3954, ATCC 25922; assay: Antibacterial microdilution broth MIC, EC; format: cell-based
[8] = test system: Pseudomonas aeruginosa CCM 3955, ATCC 27853; assay: Antibacterial microdilution broth MIC, PA; format: cell-based
[9] = test system: Enterococcus faecalis CCM 4224, ATCC 29212; assay: Antibacterial microdilution broth MIC, EF; format: cell-based
HepG2 cell line = assay: Cytotoxicity CellTiter 96, HepG2; format: cell-based, human; conditions: Homo sapiens, HepG2, 24 h, 24 h incubation; ^c compound precipitated in the testing medium; ^d over the limit of tested concentrations
[10] = test system: Klebsiella pneumoniae CCM 4415, ATCC 10031; assay: Antibacterial microdilution broth MIC, KP
panel of bacteria = assay: Antibacterial screening, whole panel; format: cell-based; conditions: whole bacterial panel
[11] = test system: Acinetobacter baumannii DSM 30007, ATCC 19606; assay: Antibacterial microdilution broth MIC, ACI; format: cell-based
[12] = test system: Staphylococcus aureus subsp. aureus CCM 4750, ATCC 43300 (MRSA); assay: Antibacterial microdilution broth MIC, MRSA; format: cell-based; conditions: for MIC: Staphylococcus aureus
[13] = test system: Aspergillus fumigatus ATCC 204305; assay: Antifungal microdilution broth MIC, AF
[14] = test system: Lichtheimia corymbifera CCM 8077; assay: Antifungal microdilution broth MIC, LC
[15] = test system: Staphylococcus aureus CCM 4223, ATCC 29213; assay: Antibacterial microdilution broth MIC, SA; format: cell-based; conditions: for MIC: Staphylococcus aureus
[16] = test system: Candida parapsilosis CCM 8260, ATCC 22019; assay: Antifungal microdilution broth MIC, CP; conditions: Lodderomyces parapsilosis
[17] = test system: Candida krusei CCM 8271, ATCC 6258; assay: Antifungal microdilution broth MIC, CK; conditions: Pichia kudriavzevii
[18] = test system: Candida albicans CCM 8320, ATCC 24433; assay: Antifungal microdilution broth MIC, CA
[19] = test system: Staphylococcus epidermidis CCM 4418, ATCC 12228; assay: Antibacterial microdilution broth MIC, SE; format: cell-based
panel of fungi = assay: Antifungal screening, whole panel; format: cell-based; conditions: whole fungal panel
Experimental: The antifungal activity was evaluated by
spectrophotometric visual detection** spectrophotometric detection**
Candida tropicalis 1 1 2 >16
Aspergillus fumigatus 4 4 0.25 1
Aspergillus flavus CCM 4 4 2 >16
interdigitale CCM 1 1 1 >16
control. […] Measured on a […]

[20] = test system: Trichophyton interdigitale CCM 8377, ATCC 9533; assay: Antifungal microdilution broth MIC, TI; conditions: for MIC: Trichophyton interdigitale
[21] = test system: Candida tropicalis CCM 8264, ATCC 750; assay: Antifungal microdilution broth MIC, CT
[22] = test system: Aspergillus flavus CCM 8363; assay: Antifungal microdilution broth MIC, AFla
[23] = ATCC204305, 24 h, read-out: MIC AF 24h
[24] = ATCC204305, 48 h, read-out: MIC AF 48h
[25] = CCM8077, 24 h, read-out: MIC LC 24h
[26] = CCM8077, 48 h, read-out: MIC LC 48h
[27] = CCM8363, 24 h, read-out: MIC AFla 24h
[28] = CCM8363, 48 h, read-out: MIC AFla 48h

NNC(=O)c1ccncc1 [INH, isoniazid, reference compound]
3.13 to 12.5 µg/mL: MIC M. kansasii [4]
3.91 to 7.81 µg/mL: MIC [6]
0.125 to 0.25 µg/mL: MIC [5]
7.81 to 15.6 µg/mL: MIC [3]
0.1 to 0.2 µg/mL: MIC Mtb H37Rv [1]
6.25 to 12.5 µg/mL: MIC M. avium [2]
0.9 to 1.8 µM: MIC ([5]; Calculated from MIC (μg/mL))

O=C(Cc1ccc(Cl)cc1)Nc1ccc(Cl)cn1 [Compound 20]
> 100 µg/mL: MIC [2] | MIC [4]
48.5 µM: IC50 (HepG2 cell line)
1.7: SI (selectivity index) [5]
7.81 µg/mL: MIC [5]
27.8 µM: MIC ([5]; Calculated from MIC (μg/mL))
> 500 µmol/L: MIC KP 24h [10] | MIC KP 48h [10]
6.25 µg/mL: MIC [1]
> 500 µM: MIC ([7]; 24 h, read-out: MIC EC 24h) | MIC ([7]; 48 h, read-out: MIC EC 48h) | MIC ([8]; 24 h, read-out: MIC PA 24h) | MIC ([8]; 48 h, read-out: MIC PA 48h) | MIC ([9]; 24 h, read-out: MIC EF 24h) | MIC ([9]; 48 h, read-out: MIC EF 48h) | MIC ([11]; 24 h, read-out: MIC ACI 24h) | MIC ([11]; 48 h, read-out: MIC ACI 48h) | MIC ([12]; 24 h, read-out: MIC MRSA 24h) | MIC ([12]; 48 h, read-out: MIC MRSA 48h) | MIC [13, 23] | MIC [13, 24] | MIC [14, 25] | MIC [14, 26] | MIC ([15]; 24 h, read-out: MIC SA 24h) | MIC ([15]; 48 h, read-out: MIC SA 48h) | MIC ([16]; 24 h, read-out: MIC CP 24h) | MIC ([16]; 48 h, read-out: MIC CP 48h) | MIC ([17]; 24 h, read-out: MIC CK 24h) | MIC ([17]; 48 h, read-out: MIC CK 48h) | MIC ([18]; 24 h, read-out: MIC CA 24h) | MIC ([18]; 48 h, read-out: MIC CA 48h) | MIC ([19]; 24 h, read-out: MIC SE 24h) | MIC ([19]; 48 h, read-out: MIC SE 48h) | MIC ([20]; 72 h, read-out: MIC TI 72h) | MIC ([20]; 120 h, read-out: MIC TI 120h) | MIC ([21]; 24 h, read-out: MIC CT 24h) | MIC ([21]; 48 h, read-out: MIC CT 48h) | MIC [22, 27] | MIC [22, 28]
None: Antibacterial activity (panel of bacteria) | Antifungal activity (panel of fungi)
500 µg/mL: MIC [3] | MIC [6]

O=C(Cc1ccc(C(F)(F)F)cc1)Nc1cccc(Cl)n1 [Compound 30]
24.8 µM: MIC ([5]; Calculated from MIC (μg/mL))
7.81 µg/mL: MIC [5]
> 100 µg/mL: MIC [4]
None: Antibacterial activity (panel of bacteria) | Antifungal activity (panel of fungi)
6.25 µg/mL: MIC [1] | MIC [2]
> 500 µg/mL: MIC [3] | MIC [6]
3.7: SI (selectivity index) [5]
> 500 µmol/L: MIC KP 24h [10] | MIC KP 48h [10]
active: MIC M. avium [2]
92.6 µM: IC50 (HepG2 cell line)
500 µM: MIC ([20]; 72 h, read-out: MIC TI 72h) | MIC ([20]; 120 h, read-out: MIC TI 120h)
> 500 µM: MIC ([7]; 24 h, read-out: MIC EC 24h) | MIC ([7]; 48 h, read-out: MIC EC 48h) | MIC ([8]; 24 h, read-out: MIC PA 24h) | MIC ([8]; 48 h, read-out: MIC PA 48h) | MIC ([9]; 24 h, read-out: MIC EF 24h) | MIC ([9]; 48 h, read-out: MIC EF 48h) | MIC ([11]; 24 h, read-out: MIC ACI 24h) | MIC ([11]; 48 h, read-out: MIC ACI 48h) | MIC ([12]; 24 h, read-out: MIC MRSA 24h) | MIC ([12]; 48 h, read-out: MIC MRSA 48h) | MIC [13, 23] | MIC [13, 24] | MIC [14, 25] | MIC [14, 26] | MIC ([15]; 24 h, read-out: MIC SA 24h) | MIC ([15]; 48 h, read-out: MIC SA 48h) | MIC ([16]; 24 h, read-out: MIC CP 24h) | MIC ([16]; 48 h, read-out: MIC CP 48h) | MIC ([17]; 24 h, read-out: MIC CK 24h) | MIC ([17]; 48 h, read-out: MIC CK 48h) | MIC ([18]; 24 h, read-out: MIC CA 24h) | MIC ([18]; 48 h, read-out: MIC CA 48h) | MIC ([19]; 24 h, read-out: MIC SE 24h) | MIC ([19]; 48 h, read-out: MIC SE 48h) | MIC ([21]; 24 h, read-out: MIC CT 24h) | MIC ([21]; 48 h, read-out: MIC CT 48h) | MIC [22, 27] | MIC [22, 28]

O=C(Cc1ccc(Cl)cc1)Nc1cccc(Cl)n1 [Compound 21]
250 μM on SA, 250 μM on MRSA: Antibacterial activity on MRSA ([12]; Table 2) | Antibacterial activity on SA ([15]; Table 2)
31.2 µg/mL: MIC [6]
25 µg/mL: MIC [4]
additional activity: MIC M. avium [2] | MIC M. kansasii [4]
125 µM: MIC ([20]; 120 h, read-out: MIC TI 120h)
> 500 µmol/L: MIC KP 24h [10] | MIC KP 48h [10]
15.6 µg/mL: MIC [3]
81.5 µM: IC50 (HepG2 cell line)
62.5 µM: MIC ([20]; 72 h, read-out: MIC TI 72h)
250 µM: MIC ([12]; 24 h, read-out: MIC MRSA 24h) | MIC ([15]; 24 h, read-out: MIC SA 24h)
27.8 µM: MIC ([5]; Calculated from MIC (μg/mL))
62.5 μM on TI: Antifungal activity on TI ([20]; Table 2)
7.81 µg/mL: MIC [5]
> 500 µM: MIC ([7]; 24 h, read-out: MIC EC 24h) | MIC ([7]; 48 h, read-out: MIC EC 48h) | MIC ([8]; 24 h, read-out: MIC PA 24h) | MIC ([8]; 48 h, read-out: MIC PA 48h) | MIC ([9]; 24 h, read-out: MIC EF 24h) | MIC ([9]; 48 h, read-out: MIC EF 48h) | MIC ([11]; 24 h, read-out: MIC ACI 24h) | MIC ([11]; 48 h, read-out: MIC ACI 48h) | MIC [13, 23] | MIC [13, 24] | MIC [14, 25] | MIC [14, 26] | MIC ([15]; 48 h, read-out: MIC SA 48h) | MIC ([16]; 24 h, read-out: MIC CP 24h) | MIC ([16]; 48 h, read-out: MIC CP 48h) | MIC ([17]; 24 h, read-out: MIC CK 24h) | MIC ([17]; 48 h, read-out: MIC CK 48h) | MIC ([18]; 24 h, read-out: MIC CA 24h) | MIC ([18]; 48 h, read-out: MIC CA 48h) | MIC ([19]; 24 h, read-out: MIC SE 24h) | MIC ([19]; 48 h, read-out: MIC SE 48h) | MIC ([21]; 24 h, read-out: MIC CT 24h) | MIC ([21]; 48 h, read-out: MIC CT 48h) | MIC [22, 27] | MIC [22, 28]
6.25 µg/mL: MIC [1] | MIC [2]
2.9: SI (selectivity index) [5]
500 µM: MIC ([12]; 48 h, read-out: MIC MRSA 48h)
